According to patent US8993565B2, “(6-oxo-1,6-dihydropyrimidin-2-yl)amide derivatives, preparation thereof and pharmaceutical use thereof as AKT(PKB) phosphorylation inhibitors” (Sanofi, priority 2009, dated 2015):

Columns and labels:
[1] = tested on: AKT protein phosphorylated on serine 473 (P-AKT-S473); experiment: Study of pAKT expression in PC3 human prostate carcinoma cells measured by the MSD Multi-spot Biomarker Detection technique (Test B); assay type: cell-based; settings: PC-3, inhibition of AKT phosphorylation (P-AKT-S473), MSD sandwich immunoassay, 1 to 2 h incubation, absolute IC50, mean of 2 experiments
Outline: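 Lysate P-AKT-S473 quantified by MSD electrochemiluminescent sandwich immunoassay; inhibition vs DMSO and cell-free background, IC50 averaged over 2 experiments.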

With `Cn1c(CC(=O)N2CCc3c(F)cccc32)nc(N2CCOCC2)cc1=O` [Example 102, 2-[2-(4-fluoro-2,3-dihydro-1H-indol-1-yl)-2-oxoethyl]-3-methyl-6-(morpholin-4-yl)pyrimidin-4(3H)-one] the IC50 [1] was 43 nM and the melting point was 244 °C.

For `Cn1c(CC(=O)Nc2ccc(F)c(C3CC3)c2)nc(N2CCOCC2)cc1=O` [Example 86, N-(3-cyclopropyl-4-fluorophenyl)-2-[1-methyl-4-(morpholin-4-yl)-6-oxo-1,6-dihydropyrimidin-2-yl]acetamide], the IC50 [1] was 26 nM and the melting point was 245 °C.

Work on `Cn1c(CC(=O)N2CCc3cc(F)c(F)cc32)nc(N2CCOCC2)cc1=O` [Example 127, 2-[2-(5,6-difluoro-2,3-dihydro-1H-indol-1-yl)-2-oxoethyl]-3-methyl-6-(morpholin-4-yl)pyrimidin-4(3H)-one] yielded an IC50 [1] of 61 nM and a melting point of 250 °C.

`CN(C)CC1CN(C(=O)Cc2nc(N3CCOCC3)cc(=O)[nH]2)c2ccccc21` (centres unmarked) [Example 115, 2-[2-(3-dimethylaminomethyl-2,3-dihydroindol-1-yl)-2-oxoethyl]-6-morpholin-4-yl-3H-pyrimidin-4-one] showed an IC50 [1] of 10 nM and a melting point of 243 °C.

`Cn1c(CC(=O)N2CCc3ccc(F)cc32)nc(N2CCOCC2)cc1=O` [Example 124, 2-[2-(6-fluoro-2,3-dihydro-1H-indol-1-yl)-2-oxoethyl]-3-methyl-6-(morpholin-4-yl)pyrimidin-4(3H)-one] showed an IC50 [1] of 124 nM and a melting point of 223 °C.

`O=C(Cc1nc(N2CCOCC2)cc(=O)[nH]1)N1CCCc2c(Cl)cccc21` [Example 131, 2-[2-(5-chloro-3,4-dihydroquinolin-1(2H)-yl)-2-oxoethyl]-6-(morpholin-4-yl)pyrimidin-4(3H)-one] gave an IC50 [1] of 41 nM and a melting point of 238 °C.

Molecule `O=C(Cc1nc(N2CCOCC2)cc(=O)[nH]1)Nc1cc(F)cc(F)c1` [Example 13, N-(3,5-difluorophenyl)-2-[4-(morpholin-4-yl)-6-oxo-1,6-dihydropyrimidin-2-yl]acetamide] has an IC50 [1] of 71 nM and a melting point greater than 260 °C.

Work on `COc1cccc2c1CCN2C(=O)Cc1nc(N2CCOCC2)cc(=O)n1C` [Example 110, 2-[2-(4-methoxy-2,3-dihydro-1H-indol-1-yl)-2-oxoethyl]-3-methyl-6-(morpholin-4-yl)pyrimidin-4(3H)-one] yielded an IC50 [1] of 278 nM and a melting point of 229 °C.

Work on `CCOc1cccc2c1CCN2C(=O)Cc1nc(N2CCOCC2)cc(=O)[nH]1` [Example 121, 2-[2-(4-ethoxy-2,3-dihydro-1H-indol-1-yl)-2-oxoethyl]-6-(morpholin-4-yl)pyrimidin-4(3H)-one] yielded an IC50 [1] of 44 nM and a melting point of 257 °C.

With `COCC1Cc2ccccc2N1C(=O)Cc1nc(N2CCOCC2)cc(=O)[nH]1` (centres unmarked) [Example 120, 2-{2-[2-(methoxymethyl)-2,3-dihydro-1H-indol-1-yl]-2-oxoethyl}-6-(morpholin-4-yl)pyrimidin-4(3H)-one] the IC50 [1] was 11 nM and the melting point was 112 to 115 °C.

Molecule `CC(C)C(C(=O)Nc1ccc(F)cc1)c1nc(N2CCOCC2)cc(=O)[nH]1` (centres unmarked) [Example 72, N-(4-fluorophenyl)-3-methyl-2-[4-(morpholin-4-yl)-6-oxo-1,6-dihydropyrimidin-2-yl]butanamide] has an IC50 [1] of 89 nM and a melting point of 266 °C.

`CCN(CC)CC1CN(C(=O)Cc2nc(N3CCOCC3)cc(=O)[nH]2)c2ccccc21` (centres unmarked) [Example 145, 2-(2-{3-[(diethylamino)methyl]-2,3-dihydro-1 H-indol-1-yl}-2-oxoethyl)-6-(morpholin-4-yl)pyrimidin-4(3 H)-one] gave an IC50 [1] of 38 nM and a melting point of 202 °C.

In the case of `Cn1c(CC(=O)Nc2cccc(C3CC3)c2)nc(N2CCOCC2)cc1=O` [Example 82, N-(3-cyclopropylphenyl)-2-[1-methyl-4-(morpholin-4-yl)-6-oxo-1,6-dihydropyrimidin-2-yl]acetamide], the IC50 [1] is reported as 133 nM and the melting point is reported as 216 °C.
